In patent US5245077A, “L-buthionine-S-sulfoximine and methods of making” (Cornell Research Foundation Inc., priority 1992, dated 1993):
Entries after “also recorded” stand apart in the source; their conditions may differ. Like-named read-outs stand apart in the source and are kept apart here.

Tests used:
[1] = system: Trypanosoma b. brucei; conditions: mice infected with Trypanosoma b. brucei; cited from earlier work
[2] = system: tissue glutathione levels; test: Glutathione depletion in mice (tissue glutathione levels); assay type: in vivo; conditions: for glutathione level of kidney: L-SR and D-SR 0.4 mmole/kg, L-S and L-R 0.2 mmole/kg; for depletion of glutathione in liver (in words) / depletion of glutathione in pancreas (in words): L-R 0.2 mmole/kg, D-SR 0.4 mmole/kg
Method: Tissue glutathione levels were determined as described in Griffith, O. W., Anal. Biochem. 106, 207-212, (1980).
Thirty two mice were given physiological saline, 4 mice were given 0.4 mmole/kg of L-buthionine-SR-sulfoximine, 4 mice were given 0.2 mmole/kg of L-buthionine-S-sulfoximine, 4 mice were given 0.2 mmoles/kg of L-buthionine-R-sulfoximine and 4 mice were given 0.4 mmole/kg or D-buthionine-SR-sulfoximine. All injections were given intraperitoneally. Two hours after injection, the mice were killed, and the glutathione levels in the brain, liver, pancreas, and kidney were determined.

[3] = target: T1, gamma-glutamylcysteine synthetase (Rattus norvegicus, UniProt P19468); test: Inhibition of gamma-glutamylcysteine synthetase (coupled PK/LDH assay, NADH absorbance at 340 mμ); assay type: biochemical; conditions: for Ki / binding mode: versus glutamate; for Ki: Lineweaver-Burk plot
T1 sequence (P19468 1-637): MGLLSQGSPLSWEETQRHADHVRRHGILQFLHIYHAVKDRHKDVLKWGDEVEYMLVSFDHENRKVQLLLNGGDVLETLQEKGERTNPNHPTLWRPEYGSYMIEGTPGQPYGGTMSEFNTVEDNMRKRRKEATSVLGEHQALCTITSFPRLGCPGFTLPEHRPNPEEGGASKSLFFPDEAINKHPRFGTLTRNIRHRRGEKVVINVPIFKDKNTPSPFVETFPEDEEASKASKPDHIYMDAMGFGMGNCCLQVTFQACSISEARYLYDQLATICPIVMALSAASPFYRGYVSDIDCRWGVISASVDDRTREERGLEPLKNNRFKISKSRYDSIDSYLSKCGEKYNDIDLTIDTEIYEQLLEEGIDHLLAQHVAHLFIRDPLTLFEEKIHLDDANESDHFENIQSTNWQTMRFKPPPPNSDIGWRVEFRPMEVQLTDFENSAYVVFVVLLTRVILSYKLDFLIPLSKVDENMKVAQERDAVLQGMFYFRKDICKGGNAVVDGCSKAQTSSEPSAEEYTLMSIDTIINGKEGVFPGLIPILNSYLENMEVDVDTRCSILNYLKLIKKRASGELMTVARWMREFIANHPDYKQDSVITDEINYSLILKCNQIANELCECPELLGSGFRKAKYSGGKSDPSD
T1 sequence (P48508 1-274 partner): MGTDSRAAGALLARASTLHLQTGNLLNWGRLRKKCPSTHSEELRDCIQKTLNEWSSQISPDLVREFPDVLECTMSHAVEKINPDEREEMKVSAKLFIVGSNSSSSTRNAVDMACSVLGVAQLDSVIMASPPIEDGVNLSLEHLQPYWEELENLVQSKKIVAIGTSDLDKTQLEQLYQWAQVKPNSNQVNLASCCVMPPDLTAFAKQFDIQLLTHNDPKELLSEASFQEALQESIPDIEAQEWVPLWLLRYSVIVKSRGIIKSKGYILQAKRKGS
Method: L-buthionine-S-sulfoximine, L-buthionine-R-sulfoximine and D-buthionine-SR-sulfoximine were assayed for ability to inhibit gamma-glutamylcysteine synthetase.
The assay procedure used is similar to that described in Griffith, O. W., J. Biol. Chem. 257, 13704-13712 (1982).
The assay is based on the following reactions wherein GS is used to denote gamma-glutamylcysteine synthetase, PK is used to denote pyruvate kinase, LDH is used to denote lactate dehydrogenase, NADH is used to denote reduced beta-nicotinamide adenine dinucleotide, NAD^+ is used to denote oxidized beta-nictoninamide adenine dinucleotide, ATP is used to denote adenosine triphosphate, ADP is used to denote adenosine diphosphate, and Pi is used to denote inorganic phosphate.
The assay is based on the fact that the velocity of the reaction to produce gamma-glutamylaminobutyrate is reduced to the extent that GS is inhibited. […] Reactions (2) and (3) are a detection system for ADP wherein ADP, as it is produced, reacts with phosphoenolpyruvate to produce pyruate, which reacts with NADH to produce NAD^+. […] Thus, progress of the GS reaction results in a decrease in the absorbence of the solution at 340 mμ and, if GS is inhibited, the decrease in absorbence at 340 mμ occurs at a slower rate. Such studies are carried out at several concentrations of inhibitor.
Each test for inhibition was carried out in a cuvette containing in a final volume of 1 ml the following: 150 mM Tris-HCl buffer (pH 8.2), 75 mM KCl, 10 mM ATP, 5 mM phosphoenolpyruvate, 25 mM MgCl2, 1 to 5 mM L-glutamate, 10 mM α-amino-L-butyrate, 0.3 mM NADH, 0.2 mM EDTA, 10 International Units of PK, 10 International Units of LDH and 0.03 International Units of GS. […] Four sets of runs were made with 1 mM glutamate; 4 sets of runs were made with 1.7 mM glutamate; 4 sets of runs was made with 2.5 mM glutamate and 4 sets of runs were made with 5 mM glutamate. At each glutamate concentration, one set of runs were made with no inhibitor. For studies with L-buthionine-R-sulfoximine the other 3 sets of runs contained 0.05, 0.1, 0r 0.2 mM inhibitor. For studies with D-buthionine-SR-sulfoximine, the other 3 sets of runs contained 2, 5 or 10 mM inhibitor.
For each test run the temperature was kept at 37° C. and GS was added last to start the reaction. The reaction velocity was followed from the decrease in absorbence at 340 mμ (a decrease of 0.62 in optical density indicates 0.1 μmol of product was formed).
A Lineweaver-Burk plot was then prepared.
Complete inhibition was obtained in less than 5 min with either concentration tested.

[4] = system: L-glutamylcysteine uptake; conditions: kidney; cited from earlier work
[5] = Transport of 35S-labelled isomers into tissues (tissue content); assay type: in vivo, mice; conditions: 2 mmole/kg i.p., 2 hours
Method: The transport of L-buthionine-S-sulfoximine and L-buthionine-R-sulfoximine into tissues was examined using preparations of each isomer radiolabeled with ^35 S.
L-[^35 S]-Buthionine-SR-sulfoximine was prepared from L-[^35 S]methionine as described previously (Griffith, O. W., J. Biol. Chem. 257, 13704-13712 (1982)). The preparation was separated into L-[^35 S]-buthionine-S-sulfoximine and L-[^35 S]-buthionine-R-sulfoximine by chromatography using Cu^++ D-proline buffer as described in Example III.
Twelve mice were injected intraperitoneally with L-[^35 S]-buthionine-S-sulfoximine and 12 mice were injected intraperitoneally with L-buthionine-R-sulfoximine. For all mice the dose was 2 mmole/kg. After 2 hours the mice were sacrificed, and the radioactivity contained in the various tissues was determined by liquid scintillation counting. From that determination and from the known specific activity of the compounds injected, the tissue content of either L-buthionine-S-sulfoximine or L-buthionine-R-sulfoximine was calculated. The results in μmole/gm tissue were as follows (tissue, content of L-buthionine-S-sulfoximine, content of L-buthionine-R-sulfoximine): brain, 0.11, 0.17; lung, 0.53, 0.55; heart, 0.33, 0.49; liver, 0.11, 0.16; spleen 0.51, 0.59; small intestine, 0.34, 0.39; large intestine, 0.25, 0.20; testes, 0.45, 0.50; skeletal muscle, 0.18, 0.24.

[6] = target: T1, gamma-glutamylcysteine synthetase; conditions: cited from earlier work
[7] = kidney, i.p., 2 hours after injection

Structure (SMILES): CCCCS(=N)(=O)CCC(N)C(=O)O (racemic) [DL-buthionine-SR-sulfoximine]
- survival of infected mice (in words) [1]: extended survival and in some cases to be cured

Structure (SMILES): CCCCS(=N)(=O)CC[C@@H](N)C(=O)O (stereo partly drawn) [D-buthionine-SR-sulfoximine, reference compound]
- glutathione level of kidney [2, 7]: 70 % of control
- depletion of glutathione in liver (in words) ([2]; liver, i.p., 2 hours): did not cause significant depletion of glutathione
- depletion of glutathione in pancreas (in words) ([2]; pancreas, i.p., 2 hours): did not cause significant depletion of glutathione
- inhibition of gamma-glutamylcysteine synthetase (in words) [3]: weak and reversible inhibitors
- reversibility of inhibition [3]: reversible inhibitor
- Ki ([3]; 37° C., pH 8.2): 5200 µM
- binding mode [3]: competitive with glutamate

Structure (SMILES): CCCCS(=O)(=O)CC[C@H](N)C(=O)O [L-buthionine sulfone]
- L-glutamylcysteine uptake from the tubule (in words) [4]: inhibition of L-glutamylcysteine uptake from the tubule

Structure (SMILES): CCCC[S@@](=N)(=O)CC[C@H](N)C(=O)O [L-buthionine-R-sulfoximine]
- depletion of glutathione in brain (in words) ([2]; brain, i.p., 2 hours): no significant effect on glutathione levels
- effect on glutathione level in kidney (in words) ([2]; kidney): only a small effect on glutathione level in kidney
- glutathione level of kidney [2, 7]: 87 % of control
- depletion of glutathione in liver (in words) ([2]; liver, i.p., 2 hours): no significant effect on glutathione levels; also recorded: did not cause significant depletion of glutathione
- depletion of glutathione in pancreas (in words) ([2]; pancreas, i.p., 2 hours): no significant effect on glutathione levels; also recorded: did not cause significant depletion of glutathione
- inhibition of gamma-glutamylcysteine synthetase (in words) [3]: weak and reversible inhibitors
- reversibility of inhibition [3]: reversible inhibitor
- Ki ([3]; 37° C., pH 8.2): 110 µM
- binding mode [3]: competitive with glutamate
- tissue content, brain [5]: 0.17 μmole/gm tissue
- uptake or retention by some tissues (in words) ([5]; e.g., heart and liver): more effectively than L-buthionine-S-sulfoximine
- tissue content, heart [5]: 0.49 μmole/gm tissue
- tissue content, large intestine [5]: 0.20 μmole/gm tissue
- tissue content, liver [5]: 0.16 μmole/gm tissue
- tissue content, lung [5]: 0.55 μmole/gm tissue
- tissue content, skeletal muscle [5]: 0.24 μmole/gm tissue
- tissue content, small intestine [5]: 0.39 μmole/gm tissue
- tissue content, spleen [5]: 0.59 μmole/gm tissue
- tissue content, testes [5]: 0.50 μmole/gm tissue

Structure (SMILES): CCCC[S@](=N)(=O)CC[C@H](N)C(=O)O [L-buthionine-S-sulfoximine]
- depletion of tissue glutathione levels in several tissues (in words) ([2]; compared with L-buthionine-SR-sulfoximine at twice the dose): as effectively as L-buthionine-SR-sulfoximine given at twice the dose
- glutathione level of kidney [2, 7]: 27 % of control
- glutathione level of liver ([2]; liver, i.p., 2 hours after injection, SR 0.4 mmole/kg, S 0.2 mmole/kg): 41 % of control
- glutathione level of pancreas ([2]; pancreas, i.p., 2 hours after injection, SR 0.4 mmole/kg, S 0.2 mmole/kg): about 42 % of control
- inhibition of gamma-glutamylcysteine synthetase (in words) [3]: strongly and irreversibly inhibits
- reversibility of inhibition [3]: irreversible inhibition
- time to complete inhibition ([3]; 0.01 or 0.1 mM inhibitor, either concentration): less than 5 min
- reversal of inhibition by dilution or gel permeation chromatography ([3]; buffers containing ATP and MgCl2): could not be reversed
- tissue content, brain [5]: 0.11 μmole/gm tissue
- tissue content, heart [5]: 0.33 μmole/gm tissue
- tissue content, large intestine [5]: 0.25 μmole/gm tissue
- tissue content, liver [5]: 0.11 μmole/gm tissue
- tissue content, lung [5]: 0.53 μmole/gm tissue
- tissue content, skeletal muscle [5]: 0.18 μmole/gm tissue
- tissue content, small intestine [5]: 0.34 μmole/gm tissue
- tissue content, spleen [5]: 0.51 μmole/gm tissue
- tissue content, testes [5]: 0.45 μmole/gm tissue

Structure (SMILES): C[S@](=N)(=O)CC[C@H](N)C(=O)O [L-methionine-S-sulfoximine]
- inhibition of gamma-glutamylcysteine synthetase (in words) [6]: the only diastereomer of DL-methionine-SR-sulfoximine that inhibits gamma-glutamylcysteine synthetase

Structure (SMILES): N[C@@H](CCC(=O)O)C(=O)O [glutamate, L-glutamate]
- Km ([3]; read-out: Km for glutamate, without inhibitor, 37° C., pH 8.2): 1700 ± 300 µM
